Measured values published in publication PMC3849192, “A Simple Method for Assessing Free Brain/Free Plasma Ratios Using an In Vitro Model of the Blood Brain Barrier” (PLoS ONE, 2013).

Assays:
[1] = Fraction unbound brain (fu,br), brain slice method; settings: rat brain slices 300 µm, 1 µM, 5 h incubation
Description: Rats (male Sprague-Dawley) were decapitated under isoflurane anesthesia and the brains were removed carefully and immersed in ice-cold oxygenated physiological buffer at pH7.4. A 6 mm coronal section was cut with a razor and mounted with cyanoacrylate glue onto the tray of the microslicer (DTK-Zero 1 Microslicer, Dosak) after which six to eight 300 µm coronal slices from striatal areas were prepared. […] The compounds were dissolved at 1 µM in the buffer and the solution was incubated with the slice for 5 h.
After 5 h, the brain slices were weighed and homogenized in 9 volumes (w/v) of ECF buffer with a sonicator (SONICS VCX 500 and VCX 130). The slice homogenates in ECF buffer were stored at −20°C prior to analysis. The concentrations of the test compound in the brain slice homogenate and in the ECF buffer was determined by LC-MS/MS.
The unbound volume of distribution Vu,brain, or free fraction fu,brain was calculated according to the following equations: [drawing 1] [drawing 2] where Cslice, CECF and V0 are amount of drug in the slice, the drug concentration in the ECF (representing the drug concentration in the brain ECF, i.e. the free concentration), and the water adhesion of the brain slice. V0 has been estimated using ^14C -inulin in a separate experiment in which brain slices were incubated for 1, 2, and 4 min. V0 was obtained from brain slice uptake – inulin time profile (apparent zero-time intercept).

[2] = tested on: in vitro BBB model (co-culture of bovine brain capillary endothelial cells and rat glial cells); test: In vitro BBB co-culture model, Cu,br/Cu,pl ratio; settings: for In vitro Cu,br/Cu,pl Mean 1 h: 2 µM in luminal compartment, abluminal/luminal concentration at 1 h; for In vitro Cu,br/Cu,pl Mean steady-state: steady-state ratio computed from 1 h data with the blue-norna steady-state calculator
Description: Figure 1 Schematic diagram of the experimental protocol. After 12 days of coculture in cell culture medium, both compartments of the in vitro BBB model consisting of a coculture of brain capillary endothlial cells and rat primary glial cells were filled with Hepes-buffered Ringer’s solution and the compounds dissolved at 2 µM were added in the luminal compartment (i.e donor). The presence of glial cells in the abluminal compartment was used to reproduce the non specific binding to brain tisssue within the brain prenchyma in vivo. After 1 hour, aliquots were taken from both compartments. In vitro Cu,br/Cu,pl at 1 h were calculated by dividing the concentration in the abluminal compartment (∼Cu,br) by the concentration in the luminal compartment (∼Cu,pl) at 1 h. The experimental data at 1 h were computed using the blue-norna steady-state calculator to generate the in vitro steady-state Cu,br/Cu,pl.
One hour after the addition of compounds dissolved at 2 µM in the luminal (i.e upper) compartment, aliquots were taken from both compartments previously filled with Hepes-buffered Ringer’s solution at the beginning of the experiment. […] The concentrations in both compartments of the in vitro assay after 1 h were computed using […] blue-norna.com to generate the in vitro steady-state Cu,br/Cu,pl.
The method of Dehouck et al. was used with minor modifications (Fig. 1). Bovine brain endothelial cells isolated from capillary fragments were cocultured with primary mixed glial cells from newborn Sprague–Dawley rats. The glial cells were isolated according to the method of Booher and Sensenbrenner and cultured for 3 weeks, plated on the bottom of cell culture clusters containing six wells each. The endothelial cells were seeded onto collagen-coated polycarbonate cell culture inserts (4.7 cm^2) (Corning Incorp. NY, USA), which were placed in the wells containing glial cells. The medium used for the coculture was Dulbecco’s modified Eagle’s medium supplemented with 10% calf serum, 10% horse serum, 2 mmol/L glutamine, 50 mg/L gentamicin and 1 µg/L basic fibroblast growth factor (Sigma). The medium was changed every second day. Experiments were usually initiated after 12 days of co-culture.
To monitor the integrity of the endothelial cell monolayer, the marker molecule [^14C] sucrose was added to the solution at a concentration of 0.05 µCi/ml. At the start of the transport experiments, buffered Ringer’s solution (pH = 7.4) was added to wells with glial cells. Inserts with brain endothelial cells were placed in these wells and drug solutions at 2 µM were added to the donor compartment. The plates were incubated for 1 h in a polymix shaker at 37°C with a low shaking velocity. Aliquots were taken from the donor compartment in the beginning and at the end of the experiments. The receiver compartments were sampled at the end of the experiments.
The amount of radiotracer in the abluminal compartment was measured in a liquid scintillation analyser (Packard Instrument Company, Meriden, USA). […] The concentrations of the test compound in all samples were analysed by MS/MS.
The mean free brain/plasma ratios were calculated from three individual experiments. One hour ratios were calculated by dividing the drug concentration in the receiver compartment by the free drug concentration in the donor compartment after 1 h. The experimental data at one hour (i.e concentration in both compartment at the beginning of the experiment and after 1 h) were computed using the blue-norna® steady-state calculator (www.blue-norna.com) to predict the in vivo steady-state Cu,br/Cu,pl ratios. For further details on this calculation method see file S1.
The in vivo steady-state Cu,br/Cu,pl were predicted from the in vitro experimental data collected after one hour according to the following equation: […]
Cdonor, t and Creceiver, t are the concentration of drug in the donor and receiver chambers at time t.

CN1CCN(C2=Nc3cc(Cl)ccc3Nc3ccccc32)CC1 [Clozapine]
fubrain (slice) Mean [1]: 0.0100
In vitro Cu,br/Cu,pl Mean 1 h [2]: 0.10
In vitro Cu,br/Cu,pl Mean 1 h ([2]; listed as clozapine): 0.103
In vitro Cu,br/Cu,pl Mean steady-state [2]: 0.71
In vitro Cu,br/Cu,pl Mean steady-state ([2]; listed as clozapine): 0.713
